This note sets out measurements from patent publication US20090270431A1, “Cyclopentenol Nucleoside Compounds Intermediates for their Synthesis and Methods of Treating Viral Infections” (THE UNIVERSITY OF GEORGIA RESEARCH FOUNDATION, priority 2005, published 2009).

The EC50 is the concentration that produces a half-maximal response. What is called IC50 is the concentration that gives 50% inhibition. Broadly, the CC50 is the concentration at which the toxic effect on the cells reaches its halfway point. A high value points to lower toxicity to the cells. As usually defined, the EC90 is the concentration at which the effect reaches the 90% level. A lower EC90 goes with greater potency. The term melting point denotes the temperature of the solid-liquid transition.

One data set deals with HCV RNA replicon. The data set can be described thus: HCV RNA replicon assay. Format: cell-based, hepatitis C virus (HCV). The following applies: for Activity (% inhibition virus control) / outcome of primary test: primary, single-dilution test; for EC50: Hepatitis C virus. As for the experimental part:
A number of […] 7-deazaneplanocin compounds were tested in vitro to determine activity against hepatitis C virus (HCV).
In general terms: Replicon systems follow genome replication, usually without infectious particles.

Data set [1] in a line: cytotoxicity in the HCV RNA replicon assay. The following applies: for Cytotoxicity (% cell control): primary, single-dilution test.
The subject of a further data set is SARS virus. In kind it is cell-based. The following applies: against SARS virus.
The nature of data set [2]: stability of the isolated compound on standing. Particulars: room temperature, over several days. In kind it is physicochemical.
The next data set concerns Vaccinia. The data set can be described thus: microbe, parasite or virus in culture. Format: cell-based, vaccinia virus.
A further data set has as its system Cowpox. The data set can be described thus: microbe, parasite or virus in culture. Format: cell-based, cowpox virus.
Another data set has as its system HBV strain WT. The data set can be described thus: HBV DR Assay, strain WT. Format: cell-based.
A short description of data set [3]: toxicity (CC50) in the anti-HBV test. Format: cell-based.
Data set [4] deals with Hepatitis B Virus. The data set can be described thus: in vitro anti-HBV activity, VIR (extracellular virion HBV DNA). In kind it is cell-based. Particulars: VIR: extracellular virion HBV DNA. As to the method:
(§1) In the first biological experiment, a number of 7-deazaneplanocin compounds were tested in vitro to determine activity against hepatitis B virus (HBV).

Data set [5] has as its system Hepatitis B Virus. The data set can be described thus: in vitro anti-HBV activity, RI (intracellular HBV DNA replication intermediates). In kind it is cell-based. As for the experimental part: as §1
For data set [6], the system named is vacinnia, cowpox and SARS viruses. In kind it is cell-based.
The subject of a further data set is cowpox virus. Format: cell-based. The following applies: against cowpox virus.
A further data set concerns vacinnia virus. Format: cell-based. The following applies: against vacinnia virus.
Setting [7] is: HT20, HT @ 20 μM, read-out: EC50.

Entries after “also recorded” stand apart in the source; their conditions may differ. Where two headings read alike, the source gives them in different places.

On to `Nc1ncnc2c1c(F)cn2[C@@H]1C=C(CO)C(O)C1O` (some centres unmarked), for which, in the data set on HCV RNA replicon, the “Activity (% inhibition virus control)” value was 9.5% and the “outcome of primary test” value is “Inactive in primary, single-dilution test”. The “Cytotoxicity (% cell control)” value in data set [1] came out at 112.7%.

Compound `Nc1ncnc2c1c(Cl)cn2[C@@H]1C=C(CO)C(O)C1O` (some centres unmarked) showed an EC50 in the data set with HCV RNA replicon (HT @ 100 μM) of 14.7 µM. Besides, the “Activity (% inhibition virus control)” value in the data set on HCV RNA replicon is 70.6%. For the same compound, in data set [1] (HT @ 100 μM), the IC50 was found to be 50.1 µM. Further, the “Cytotoxicity (% cell control)” value in [1] was determined as 81.2%.

`Nc1ncnc2c1c(Br)cn2[C@@H]1C=C(CO)C(O)C1O` (some centres unmarked): the EC50 was determined as 10.5 µM in the data set with HCV RNA replicon (setting [7]) and 16.7 µM in the data set on HCV RNA replicon (HT @ 100 μM, read-out: EC50). Moreover, the “Activity (% inhibition virus control)” value in the data set on HCV RNA replicon turned out to be 80.9%. The IC50 in [1] (HT20, HT @ 20 μM) was greater than 20 µM; in data set [1] (HT @ 100 μM), 41.7 µM. Also, the “Cytotoxicity (% cell control)” value in [1] worked out at 76.3%.

As to `Nc1ncnc2c1c(I)cn2[C@@H]1C=C(CO)C(O)C1O` (some centres unmarked), the EC50 came out at 3.07 µM with HCV RNA replicon (HT @ 5 μM, read-out: EC50) and 2.14 µM in the data set with HCV RNA replicon (HT @ 100 μM, read-out: EC50). The “Activity (% inhibition virus control)” value in the data set with HCV RNA replicon is 89.7%. For the same compound, the IC50 in [1] (HT @ 5 μM) is greater than 5 µM; in data set [1] (HT @ 100 μM) it was 15 µM. For the same compound, the “Cytotoxicity (% cell control)” value in data set [1] came out at 35.2%.

Take `Nc1ncnc2c1c([N+](=O)[O-])cn2[C@@H]1C=C(CO)C(O)C1O` (some centres unmarked): the “Activity (% inhibition virus control)” value in the data set on HCV RNA replicon turned out to be 31.5%. Besides, in data set [1], the “Cytotoxicity (% cell control)” value turned out to be 101.5%.

Regarding `N#Cc1cn([C@@H]2C=C(CO)C(O)C2O)c2ncnc(N)c12` (some centres unmarked), in the data set with HCV RNA replicon, the “Activity (% inhibition virus control)” value was determined as 0.5% and the “outcome of primary test” value was “Inactive in primary, single-dilution test”. Further, the “Cytotoxicity (% cell control)” value in [1] is recorded as 103.3%.

Consider `NC(=O)c1cn([C@@H]2C=C(CO)C(O)C2O)c2ncnc(N)c12` (some centres unmarked), for which, in the data set with HCV RNA replicon (HT not given, read-out: EC50), the EC50 was 1.85 µM. In addition, the “Activity (% inhibition virus control)” value with HCV RNA replicon stood at 93.5%. This compound gave an IC50 in data set [1] (HT not given) of 11.8 µM. The “Cytotoxicity (% cell control)” value in data set [1] is 44.2%.

For the compound `C=Cc1cn([C@@H]2C=C(CO)C(O)C2O)c2ncnc(N)c12` (some centres unmarked), the “Activity (% inhibition virus control)” value in the data set on HCV RNA replicon stood at 49.2%. Also, in data set [1], the “Cytotoxicity (% cell control)” value was 99.7%.

As for `Nc1nc2c(ccn2[C@@H]2C=C(CO)C(O)C2O)c(=O)[nH]1` (some centres unmarked), in the data set with HCV RNA replicon, the “Activity (% inhibition virus control)” value turned out to be 10.1% and the “outcome of primary test” value was “Inactive in primary, single-dilution test”. For the same compound, the “Cytotoxicity (% cell control)” value in [1] came out at 99.8%.

Take “1-(4,5-Dihydroxy-3-hydroxymethyl-cyclopenten-2-enyl)-1H-[1,2,4]triazole-3-carboxylic acid amide [Compound 17a]”: the EC50 in the data set with SARS virus stood at 21 µM.

Take “7-Deaza-7-Amino-Neplanocin A [Compound 23]”: in [2], the stability result was “not stable; also recorded: slowly decomposed in room temperature”.

Compound `Nc1ncnc2c1ccn2[C@@H]1C=C(CO)[C@@H](O)[C@H]1O` [7-deaza neplanocin A] yielded a CC50 in the data set on HFF cells greater than 300 µM. Moreover, the “cytotoxicity (none up to)” value in the data set with HFF cells was greater than 300 µM. In addition, the EC90 in the data set on Vaccinia (Vaccinia, HFF cells, CPE reduction assay) turned out to be 21.5 µM; in the data set on Cowpox (Cowpox, HFF cells, CPE reduction assay), 4.6 µM. Also, the EC50 in the data set on Vaccinia (Vaccinia, HFF cells, CPE reduction assay, read-out: EC50) turned out to be 3.4 µM; in the data set with Cowpox (Cowpox, HFF cells, CPE reduction assay, read-out: EC50), 1.2 µM.

In the data set with HBV strain WT, `CC(C)(C)C(=O)OCOP(=O)(COCCn1cnc2c(N)ncnc21)OCOC(=O)C(C)(C)C` [ADV] showed an EC50 of 1300 nM and an EC90 of 6 µM.

As for `Nc1ccn(C[C@@H](CO)OCP(=O)(O)O)c(=O)n1` [Cidofovir, reference compound], the EC50 in the data set on Vaccinia (Orthopoxvirus vaccinia, HFF) was found to be 4 µM; in the data set with Cowpox (Cowpox virus, HFF) it was 5 µM.

For the compound `Nc1ccn([C@@H]2CS[C@H](CO)O2)c(=O)n1` [Compound 3TC], in the data set on HBV strain WT, the EC50 was determined as 200 nM and the 90% effect level (EC90) was put at 0.6 µM.

As to `Nc1ncnc2c1c(F)cn2[C@@H]1C=C(CO)[C@@H](O)[C@H]1O` [Compound 10], the CC50 in data set [3] is greater than 300 µM. For the same compound, in the data set on Hepatitis B Virus [4], the EC50 was greater than 10 µM and the concentration for an effect of 90% (EC90) was greater than 10 µM.

Compound `Nc1ncnc2c1c(Cl)cn2[C@@H]1C=C(CO)[C@@H](O)[C@H]1O` [Compound 11, 7-Deaza-7-Chloro Neplanocin A] gave a CC50 in data set [3] greater than 300 µM. Moreover, in the data set with Hepatitis B Virus [4], the EC50 was greater than 10 µM and the concentration for an effect of 90% (EC90) is greater than 10 µM.

In the case of `Nc1ncnc2c1c(Br)cn2[C@@H]1C=C(CO)[C@@H](O)[C@H]1O` [Compound 12, 7-Deaza-7-Bromo Neplanocin A], the CC50 in data set [3] is greater than 300 µM. In the data set with Hepatitis B Virus [4], this compound came in with an EC50 greater than 10 µM and an EC90 greater than 10 µM.

Take `Nc1ncnc2c1c(I)cn2[C@@H]1C=C(CO)[C@@H](O)[C@H]1O` [Compound 13, 7-Deaza-7-Iodo Neplanocin A]: the EC50 with Hepatitis B Virus [5] turned out to be 1600 nM; with Hepatitis B Virus [4] it was 0.431 µM. The values for the EC90 in the data set on Hepatitis B Virus [5] and in the data set on Hepatitis B Virus [4] were 5.9 µM and 1.8 µM, respectively. In [3], this compound yielded a CC50 greater than 300 µM.

For `N#Cc1cn([C@@H]2C=C(CO)[C@@H](O)[C@H]2O)c2ncnc(N)c12` [Compound 17, 7-Deaza-7-Cyano-Neplanocin A], the CC50 in [3] is greater than 300 µM. In the data set on Hepatitis B Virus [4], this compound came in with an EC50 greater than 10 µM and an EC90 greater than 10 µM.

Take `NC(=O)c1cn(C2C=C(CO)C(O)C2O)cn1` (centres unmarked) [Compound 17b, 1-(4,5-Dihydroxy-3-hydroxymethyl-cyclopenten-2-enyl)-1H-imidazole-4-carboxylic acid amide]: the antiviral activity result in data set [6] is “did not show any significant antiviral activity”.

As for `NC(=O)c1cn(C2C=C(CO)C(O)C2O)nn1` (centres unmarked) [Compound 17c, 1-(4,5-Dihydroxy-3-hydroxymethyl-cyclopenten-2-enyl)-1H-[1,2,3]triazole-4-carboxylic acid amide], the EC50 in the data set with cowpox virus came out at 39 µM; with SARS virus, 47 µM; in the data set on vacinnia virus, 400 nM.

In the case of `NC(=O)c1cn([C@@H]2C=C(CO)[C@@H](O)[C@H]2O)c2ncnc(N)c12` [Compound 18, 7-Deaza-7-Amido-Neplanocin A], the CC50 in data set [3] was greater than 300 µM. In the data set with Hepatitis B Virus [4], this compound showed an EC50 greater than 10 µM and an EC90 greater than 10 µM.

In turn, `Nc1ncnc2c1c([N+](=O)[O-])cn2[C@@H]1C=C(CO)[C@H](O)C1O` (some centres unmarked) [Compound 22, 7—Deaza-7-Nitro-Neplanocin A] registered a melting point of 245 to 246 °C. Further, the CC50 in data set [3] was greater than 300 µM. In the data set on Hepatitis B Virus [4] (Hepatitis B virus), the EC50 is greater than 10 µM and the EC90 is greater than 10 µM.

In the case of `C=Cc1cn([C@@H]2C=C(CO)[C@H](O)C2O)c2ncnc(N)c12` (some centres unmarked) [Compound 25, 7-Deaza-7-Vinyl-Substituted Neplanocin A], the melting point lay within 168 to 170 °C. In the data set with Hepatitis B Virus [5] (Hepatitis B virus), the midpoint of the response, the EC50, lay at 10000 nM and it took 26 µM to reach the 90% level (EC90). The same compound returned a CC50 in data set [3] greater than 300 µM. In the data set on Hepatitis B Virus [4] (Hepatitis B virus), the EC50 stood at 3.3 µM and the 90% effect level (EC90) was put at 9.1 µM.

`C#Cc1cn([C@@H]2C=C(CO)C(O)C2O)c2ncnc(N)c12` (some centres unmarked) [Compound 27, 7-Deaza-7-Acetylene-Neplanocin A] returned a melting point of 126 to 128 °C. In the data set with Hepatitis B Virus [5] (Hepatitis B virus), a half-maximal response (EC50) required 1800 nM and it took 7.9 µM to reach the 90% level (EC90). In the data set with HBV strain WT (Hepatitis B virus), the EC50 came out at 2500 nM and the EC90 turned out to be 8.7 µM. The CC50 in [3] was greater than 300 µM. Also, in the data set on Hepatitis B Virus [4] (Hepatitis B virus), the midpoint of the response, the EC50, lay at 0.315 µM and the EC90 was 1.6 µM.

For the compound `C#Cc1cn([C@@H]2C=C(CO)C(O)C2O)c2ncnc(N)c12` (some centres unmarked) [drawing 37], the EC50 came to 12.3 µM in the data set with HCV RNA replicon (setting [7]) and 20.1 µM in the data set on HCV RNA replicon (HT @ 100 μM, read-out: EC50). The “Activity (% inhibition virus control)” value in the data set on HCV RNA replicon was determined as 73.3%. The IC50 in data set [1] (HT20, HT @ 20 μM) was greater than 20 µM; in data set [1] (HT @ 100 μM), 48.9 µM. Besides, the “Cytotoxicity (% cell control)” value in data set [1] is given as 86.6%.
